Measurements reported in patent US7211545B2, “Imidazo[1,2-a]pyrimidine and fungicidal compositions containing thereof” (Sumitomo Chemical Company, Limited, priority 2001, dated 2007).

Key:
[1] = tested on: Botrytis cinerea; assay: Test Example 3: preventive efficacy against Botrytis cinerea on cucumber (comparison with Reference Compound A); type: in vivo; settings: 500 ppm flowable, foliar spray on cucumber cotyledons, inoculated after spraying, 12° C. humid, 4 days
Method: The control effect of the present compound was evaluated by visually observing the area of a lesion on a plant under test in investigation and comparing the area of a lesion in a non-treatment group and the area of a lesion in a group treated with the present compound. Sand loam was compacted in plastic pots, cucumbers (Ochiai Aonagafushinari) were seeded and grown in a greenhouse for 10 days. Then, each of Reference Compound A and Compound 182 was formulated into a flowable formulation according to Formulation Example 6, then, diluted with water to provide prescribed concentration (500 ppm), and sprayed over the foliage so as to give sufficient adhesion on the surface of cucumber cotyledons. After spraying, the plants were air-dried, and PDA medium containing spores of Botrytis cinerea were attached on cucumber cotyledons. After the inoculation, the cucumbers were placed in a humid condition at 12° C. for 4 days, and the control effect was examined. As a result, areas of lesions on the plant treated with Reference Compound A were in the range of 75% to 100% on those of the untreated groups, on the other hand, areas of lesions on the plant treated with Compound 182 was not greater than 1% of areas of lesions on those of the untreated groups.

[2] = tested on: Sphaerotheca fuliginea; assay: Test Example 4: preventive efficacy against Sphaerotheca fuliginea on cucumber (comparison with Reference Compound A); type: in vivo; settings: 500 ppm flowable, foliar spray on cucumber leaves, inoculated after spraying, 23° C., 12 days
Method: The control effect of the present compound was evaluated by visually observing the area of a lesion on a plant under test in investigation and comparing the area of a lesion in a non-treatment group and the area of a lesion in a group treated with the present compound. Sand loam was compacted in plastic pots, cucumbers (Ochiai Aonagafushinari) were seeded and grown in a greenhouse for 12 days. Then, each of Reference Compound A and Compound 182 was formulated into flowable formulations according to Formulation Example 6, then, diluted with water to provide prescribed concentration (500 ppm), and sprayed over the foliage so as to give sufficient adhesion on the surface of cucumber leaves. After spraying, the plants were air-dried, and inoculated with spores of Sphaerotheca fuliginea. After the inoculation, the cucumbers were placed at 23° C. for 12 days, and the control effect was examined. As a result, areas of lesions on the plant treated with Reference Compound A were in the range of 75% to 100% on those of the untreated groups, on the other hand, areas of lesions on the plant treated with Compound 182 was not greater than 1% of infested areas on those of the untreated groups.

melting point	SMILES	areas of lesions on treated plant as % of areas of lesions on untreated groups [1]	areas of lesions on treated plant as % of infested areas on untreated groups [2]
95.4 °C	CCCN(CCC)c1c(-c2c(F)cc(F)cc2F)c(Cl)nc2nccn12 [Compound 8, 5-(di-n-propylamino)-6-(2,4,6-trifluorophenyl)-7-chloroimidazo[1,2-a]pyrimidine]		
200.8 °C	CC1CCN(c2c(-c3c(F)cc(F)cc3F)c(Cl)nc3nccn23)CC1 [Compound 55, 5-(4-methylpiperidin-1-yl)-6-(2,4,6-trifluorophenyl)-7-chloroimidazo[1,2-a]pyrimidine]		
150.4 °C	Cc1cc(C)n(-c2c(-c3c(F)cc(F)cc3F)c(Cl)nc3nccn23)n1 [Compound 89, 5-(3,5-dimethylpyrazol-1-yl)-6-(2,4,6-trifluorophenyl)-7-chloroimidazo[1,2-a]pyrimidine]		
183.8 °C	CC1CCN(c2c(-c3c(F)cccc3Cl)c(Cl)nc3nccn23)CC1 [Compound 182, 5-(4-methylpiperidin-1-yl)-6-(2-chloro-6-fluorophenyl)-7-chloroimidazo[1,2-a]pyrimidine]	≤ 1%	≤ 1%
144.5 °C	Cc1nc2nccn2c(N2CCC(C)CC2)c1-c1c(F)cccc1Cl [Compound 428, 5-(4-methylpiperidin-1-yl)-6-(2-chloro-6-fluorophenyl)-7-methylimidazo[1,2-a]pyrimidine]		
